Results taken from patent US6331555A, “Treatment of platelet derived growth factor related disorders such as cancers” (priority 1999, dated 2001).
Entries after “also recorded” stand apart in the source; their conditions may differ.

Legend:
[1] = tested on: A549 lung tumor; assay: SC xenograft in mice; type: in vivo, human
Protocol: (§1) Cell lines were grown in appropriate medium (see Appendix 1). Cells were harvested at or near confluency with 0.05% Trypsin-EDTA and pelleted at 450×g for 10 min. Pellets were resuspended in sterile PBS or media (without FBS) to a particular concentration and the cells were implanted into the hindflank of mice. Tumor growth was measured over 3 to 6 weeks using venier calipers. Tumor volumes were calculated as a product of length×width×height unless otherwise indicated. P values were calculated using the Students' t-test.

[2] = tested on: PA-1 ovarian tumor; assay: SC xenograft in mice; type: in vivo, human; conditions: nu/nu, 20 mg/kg/day, day 36
Protocol: as §1

[3] = tested on: U118T glioma; assay: SC xenograft in mice; type: in vivo, human; conditions: nu/nu, 15 mg/kg/day, day 47
Protocol: as §1

[4] = tested on: A431 epidermoid tumor; assay: SC xenograft in mice; type: in vivo, human
Protocol: as §1
(§2) C6 and SKOV-3(T) cells were grown in culture, as described in "cell growth" above, and implanted into the hind flank of a female Balb/c nu/nu mouse at 3×10^6 cells (for C6 experiments), or 1×10^7 cells (for SKOV-3 experiments) in […] of PBS on Day 0. U87MG, U118MG or U373MG human glioblastoma cells (obtained from the ATCC), or A4312 were also implanted into athymic mice. […] Tumors were measured using venier calipers and tumor volume was calculated as a product of tumor length, width, and height.

[5] = tested on: SKOV3T ovarian tumor; assay: SC xenograft in mice; type: in vivo, human
Protocol: as §1, §2

[6] = tested on: U118 glioblastoma; assay: SC xenograft in mice; type: in vivo, human; conditions: 15 mg/kg
Protocol: as §1, §2

[7] = tested on: U373MG glioblastoma; assay: SC xenograft in mice; type: in vivo, human
Protocol: as §1, §2

[8] = tested on: U87MG glioblastoma; assay: SC xenograft in mice; type: in vivo, human
Protocol: as §1, §2

[9] = tested on: 7TD1 (B-cell hybridoma) cells; assay: Survival, IP 7TD1 B-cell hybridoma in C57BL/6 mice; type: in vivo, mouse
Protocol: Cell lines were grown in the appropriate media as described in Appendix 1. Cells were harvested and washed in sterile PBS or medium without FBS, resuspended to a suitable concentration, and injected into the IP cavity of […] of the appropriate strain. Prior to implantation of 7TD1 cells, C57BL/6 mice were primed by IP injection of 0.5 mL Pristane. SKOV3T cells were implanted into athymic mice without Pristane priming. Mice were observed daily for the occurrence of ascites formation. Individual animals were sacrificed when they presented with a weight gain of 40%, or when the IP tumor burden began to cause undue stress and pain to the animal.
All animals in the control group died by day 9, while 3 of 8 animals in the A10-treated group survived past day 80.

[10] = tested on: spleen cells; assay: Normal immune function in mice bearing a primary tumor; type: in vivo, mouse; conditions: 20 mg/kg/day
Description: At the indicated times, animals were sacrificed, and the spleens were aseptically removed and placed into sterile medium. Spleens were processed into single cell suspensions by grinding between sterile frosted glass microscope slides. After a single wash to remove tissue debris, the spleen cells were resuspended in a hypotonic ammonium chloride buffer to lyse erythrocytes. Lymphocytes were washed and resuspended to the appropriate concentrations in complete medium, consisting of RPMI plus 10% heat-inactivated FBS, 2 mM glutamine, 50 μM β-mercaptoethanol, and penicillin-streptomycin. The responses of the lymphocytes were examined in the following assays according to accepted procedures (Current Protocols in Immunology. Coligan, J. E., Kruisbeek, A. M., Margulies, D. H., Shevach, E. M., Strober, W. (eds.) John Wiley and Sons, Inc., 1992).
The T-cell mitogen, ConA, and the T-cell independent B-cell mitogen, LPS, were added to 96-well round-bottom wells at the indicated concentrations. Lymphocytes from normal, vehicle-dosed, and drug-dosed animals were added at a final concentration of 2.5×10^5 /well. Cultures were usually set up in triplicate or quadruplicate. The plates were incubated at 37° C. in a humidified atmosphere containing 5% CO2 for the indicated times. Supernatants (approximately 100 μL) were carefully removed from the wells and stored at -80° C. for lymphokine and immunoglobulin analyses. To measure proliferation of the lymphocytes, 1 μCi of ^3 H-thymidine was added to each well, and the plates were incubated for 6 hr. The cultures were harvested onto glass fiber filters, and the incorporated radioactivity was quantitated by liquid scintillation counting (Betaplate, Wallac).
Lymphocytes from normal, vehicle-dosed, and drug-dosed animals were plated at 2.5×10^5 /well in round-bottom 96-well plates. Stimulator cells were then added at the same cell concentration. The stimulator cells consisted of syngeneic or allogeneic lymphocytes which had been treated with 50 μg/mL of mitomycin C for 30 min prior to the assay. The plates were incubated for 3 to 4 days, at which time supernatants were harvested and the cultures were pulsed as described for the mitogen assays.
Supernatants from mitogen and MLR cultures were assayed for IL-2 and IL-6 content by the ability to support the growth of factor-dependent cell lines. HT-2 cells (10^4 /well, IL-2-dependent) and 7TD1 cells (2×10^3 /well, IL-6-dependent) were plated in 96-well flat-bottom plates, in 50 μL/well. Supernatants were added in 50 μL/well, and the plates were incubated overnight (HT-2) or four days (7TD1). Cellular proliferation was determined in the MTT colorimetric assay (Appendix 3.1).
Flat bottom 96-well EIA plates were coated with goat anti-mouse Ig antibodies (Southern Biotechnology) overnight at 4° C. The plates were blocked by the addition of PBS+1% BSA. After washing with PBS, supernatants from murine mitogen and MLR cultures were added and incubated at room temperature for 1 hr. The plates were washed with PBS, then HRP-labeled goat anti-mouse Ig antibodies were added and incubated at room temperature for 1 hr. The plates were washed and developed by the addition of substrate (ABTS).
BALB/c mice received SC implants of syngeneic WEHI-164.13 fibrosarcoma cells on day 0. […] On day 17, the animals were sacrificed and their spleens were removed. The spleen cells were assayed in vitro for responses to alloantigens and mitogens.

[11] = mice xenotransplanted with human ovarian cancer cells

Cc1oncc1C(=O)Nc1ccc(C(F)(F)F)cc1 [Compound A10, 5-methylisoxazole-4 carboxylic acid-(4-trifluromethyl)-anilide]
growth of xenograft ([1]; 12 to 20 mg/kg/day): failed to significantly inhibit the growth
% Inhibition ([1]; SCID, 15 mg/kg/day, day 48, treatment from day 29): 19%
% Inhibition [2]: 53%
% Inhibition [3]: 57%
effect on A431 tumor growth ([4]; 15 mg/kg/day, DMSO): no more than 25%
growth of xenograft ([4]; 12 to 20 mg/kg/day): did not significantly inhibit the growth of xenotransplanted cells expressing EGF receptor; also recorded: failed to significantly inhibit the growth
% Inhibition ([4]; nu/nu, 15 mg/kg/day, day 15): 40%
inhibition in tumor growth ([5]; 15 mg/kg/day (DMSO), after 20 days): greater than 90%
cytotoxicity or mortality [5, 11]: without significant cytotoxicity or mortality
ovarian tumor growth [5, 11]: nearly complete inhibition of ovarian tumor growth
% Inhibition ([5]; nu/nu, 15 mg/kg/day, day 21): 94%
In Vivo inhibition ([5]; xenografted athymic mice): 95%
% Inhibition [6]: 57%
% Inhibition ([7]; 15 mg/kg): 54%
% Inhibition ([7]; nu/nu, 15 mg/kg/day, day 37): 54%
% Inhibition ([8]; 5 mg/kg): 52%
% Inhibition ([8]; 10 mg/kg): 58%
% Inhibition ([8]; 15 mg/kg): 66%
% Inhibition ([8]; 20 mg/kg): 92%
survival ([9]; 15 mg/kg/day IP in DMSO): significantly increase the survival
animals surviving ([9]; 15 mg/kg/day IP in DMSO 30 days, past day 80): 3 of 8
IL-2 production ([10]; Allo): 0
IL-6 production ([10]; Allo): 0
Ig production ([10]; Allo): 0
IL-2 production ([10]; ConA): 0
IL-6 production ([10]; ConA): 0
Ig production ([10]; ConA): 0
IL-2 production ([10]; LPS): 0
IL-6 production ([10]; LPS): 0
Ig production ([10]; LPS): 0
IL-2 production ([10]; Tumor stimulus): 0
IL-6 production ([10]; Tumor stimulus): 0
Ig production ([10]; Tumor stimulus): 0
